Here are results for 6 compounds from patent publication US8901118B2, “Compounds and methods for kinase modulation, and indications therefor” (Plexxikon Inc., priority 2010, dated 2014).

The test system of one assay is MV-4-11 cells. As to the kind of experiment: MV-4-11 (leukemia) cell proliferation assay (ATPlite). Type of assay: cell-based. Particulars: Homo sapiens, MV4-11, read-out: Inhibition of Cell Proliferation IC50, MV-4-11. As to the method:
Compounds are assessed in a variety of cell based assays. For example BaF3 cells engineered with any of BCR-FMS, BCR-KIT, BCR-FLT3, BCR-NTRK1, BCR-NTRK2, and BCR-NTRK3, are used in cell proliferation assays to assess inhibitory activity of Fms, Kit, Flt-3, TrkA, TrkB, and TrkC, respectively. An MV-4-11 (leukemia) cell proliferation assay is used to assess inhibitory activity in Flt-3, and SKNSH (human neuroblastoma) cell proliferation assay is used to assess efficacy of Fms/Trk inhibitors. Additional cells may be assayed similarly to assess the efficacy of Fms/Trk inhibitors, such as MiaPaCa (human pancreatic cancer) and Capan-1 (human pancreatic carcinoma) cells. Reagent and assay conditions are as follows: • BaF3 cells: • Maintained in RPMI containing 10% FBS, 1% PenStrep, 1% NEAA, and 1% L-Glutamine, supplemented with 1 mg/mL G418 and 5% WEHI-CM (or recombinant murine IL-3). • Confluent cells are split 1:50 to 1:100 every 3-4 days. • MV-4-11 cells: • Maintained in Iscove's Modified Dulbecco's Medium containing 10% FBS. • Confluent cells are split 1:4 every 3-4 days. • SKNSH cells: RPMI containing 10% FBS. On day 1, cells are counted, then centrifuged in a conical tube for 5 minutes at 1000 rpm. The supernatant is removed and cells are re-suspended as follows: • BaF3: resuspend in growth media +1 mg/mL G418 (without WEHFIL-3) to 2×10^5 cells/mL. • MV-4-11: resuspend in growth media to 5×10^5 cells/mL. • SKNSH: resuspend in growth media to 2×10^4 cells/mL. The cells are plated (50 μL, 150 μL for SKNSH cells) in each well of a 96-well dish (Corning 3610) and incubated at 37° C. in 5% CO2 overnight, cells plated to a final concentration of cells as follows: • BaF3: 10,000 cells per well. • MV-4-11: 25,000 cells per well. • SKNSH: 3,000 cells per well. On day 2, compound at a maximum concentration of 5 mM is serially diluted 1:3 for a total of 8 point titration with DMSO as a control. A 1 μL aliquot of each dilution point is added to 249 μL growth media and 50 μL is added to a well containing cells, providing 10 μM compound for the maximum concentration point. The cells are incubated for 3 days at 37° C. in 5% CO2. For SKNSH cells, a 0.75 μL aliquot of appropriate dilution in DMSO is added to 150 μL of cells. On day 5, ATPlite 1 step Luminescence Assay System (Perkin Elmer #6016739) is brought to room temperature along with the cell cultures. ATPlite is added to each well as follows: • BaF3: 25 μL per well. • MV-4-11: 40 μL per well. • SKNSH: 20 μL per well. The cells are incubated at room temperature for 10 minutes, then luminescence is read on Safire reader. The measured luminescence correlates directly with cell number, such that the reading as a function of compound concentration is used to determine the IC50 value.
It is understood that the results of these assays may vary as assay conditions are varied. Inhibition levels determined under the conditions described herein represent a relative activity for the compounds tested under the specific conditions employed. The cell based assays are likely to show variability due to the complexity of the system and the sensitivity thereof to any changes in the assay conditions. […] Results for compounds that are tested and show substantially no inhibition below the highest tested concentration are represented as “-” in the tables below. In some instances, the compounds were not tested in all of the assays, or assay results were not valid, as indicated by NA in the tables below.

For another assay, the target named is CYP3A4(BQ) (Homo sapiens, UniProt P08684). As to the kind of experiment: CYP3A4(BQ) inhibition. Format: in vitro ADME. As to conditions: CYP3A4, substrate BQ; read-out: Cyp IC50 3A4(BQ). A digest of the protocol:
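Inhibition of human CYP3A4 (BQ substrate) was measured by fluorescence, since blocking metabolism of a known substrate lowers the fluorescent product signal. Compounds dissolved in DMSO at 100 mM were diluted into acetonitrile and then into NADPH regeneration cofactor mix, serially diluted 1:1 across 10 points, and preincubated in 384 well plates for 10 minutes at 37° C.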

pIC50: −log10 of the molar value.

Chain of CYP3A4(BQ) (P08684 whole entry): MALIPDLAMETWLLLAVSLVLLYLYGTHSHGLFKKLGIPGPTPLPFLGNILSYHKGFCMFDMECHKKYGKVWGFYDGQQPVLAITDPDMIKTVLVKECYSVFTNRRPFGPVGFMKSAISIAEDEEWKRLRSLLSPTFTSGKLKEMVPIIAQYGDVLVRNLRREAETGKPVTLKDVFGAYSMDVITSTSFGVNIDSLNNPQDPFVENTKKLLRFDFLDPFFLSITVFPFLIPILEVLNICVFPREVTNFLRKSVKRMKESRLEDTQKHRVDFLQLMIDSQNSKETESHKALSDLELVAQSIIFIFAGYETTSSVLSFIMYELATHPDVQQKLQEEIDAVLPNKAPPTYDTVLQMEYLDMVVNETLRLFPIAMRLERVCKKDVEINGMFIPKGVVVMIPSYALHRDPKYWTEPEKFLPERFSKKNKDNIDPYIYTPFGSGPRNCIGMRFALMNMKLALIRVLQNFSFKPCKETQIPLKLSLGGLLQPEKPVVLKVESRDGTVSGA

In the case of `CCn1cc(Nc2ccc(Cc3c[nH]c4ncnc(C)c34)c(F)n2)cn1` [Compound P-4013, (1-Ethyl-1H-pyrazol-4-yl)-[6-fluoro-5-(4-methyl-7H-pyrrolo[2,3-d]pyrimidin-5-ylmethyl)-pyridin-2-yl]-amine], the figures for the pIC50 with MV-4-11 cells and at CYP3A4(BQ) were more than 6.00 and less than 5.00, respectively.
For `COCCOc1ncnc2[nH]cc(Cc3ccc(Nc4ccc(OC)nc4)nc3F)c12` [Compound P-4019, {6-Fluoro-5-[4-(2-methoxy-ethoxy)-7H-pyrrolo[2,3-d]pyrimidin-5-ylmethyl]-pyridin-2-yl}-(6-methoxy-pyridin-3-yl)-amine] the same measures were more than 6.00 and less than 5.00.
The corresponding values for `CCOc1ccc(Nc2ccc(Cc3c[nH]c4ncnc(OC)c34)c(F)n2)cn1` [Compound P-4005, (6-Ethoxy-pyridin-3-yl)-[6-fluoro-5-(4-methoxy-7H-pyrrolo[2,3-d]pyrimidin-5-ylmethyl)-pyridin-2-yl]-amine] are more than 6.00 and less than 5.00.
`CCn1cc(Nc2ccc(Cc3c[nH]c4ncnc(OCCOC)c34)c(F)n2)cn1` [Compound P-4014, (1-Ethyl-1H-pyrazol-4-yl)-{6-fluoro-5-[4-(2-methoxy-ethoxy)-7H-pyrrolo[2,3-d]pyrimidin-5-ylmethyl]-pyridin-2-yl}-amine]: the pIC50 in the assay on MV-4-11 cells was more than 6.00; on CYP3A4(BQ), less than 5.00.
For `CCn1cc(Nc2ccc(Cc3c[nH]c4ncnc(OC)c34)c(F)n2)cn1` [Compound P-4011, (1-Ethyl-1H-pyrazol-4-yl)-[6-fluoro-5-(4-methoxy-7H-pyrrolo[2,3-d]pyrimidin-5-ylmethyl)-pyridin-2-yl]-amine] the same measures were more than 6.00 and less than 5.00.
For `CCOc1ncnc2[nH]cc(Cc3ccc(Nc4ccc(C)nc4)nc3F)c12` [Compound P-4017, [5-(4-Ethoxy-7H-pyrrolo[2,3-d]pyrimidin-5-ylmethyl)-6-fluoro-pyridin-2-yl]-(6-methyl-pyridin-3-yl)-amine] the same measures were more than 6.00 and less than 5.00.
